Test results from ChEMBL document CHEMBL5724558, “Image-based profiling of drug vulnerabilities in CRC organoids” (2024).
Where “and” joins values, the source holds several entries; their conditions need not be identical. Equal values may be shown once.

What was measured:
Format in all cases: functional, Homo sapiens
Set-up in all cases: dose or concentration left out as unconfirmed
Colon cancer organoid [1] = test: (§1) Image-based profiling of donated chemical probes and chemogenomic kinase set in O06 CRC organoid. Image analysis is performed on the sum area metric, and the data were normalized to the DMSO control. After imaging the organoid viability is measured using the OneGloEX Luciferase Assay System. The normalized viability data and sum area are reported.
Colon cancer organoid [2] = test: as §1, with “O09” for “O06”
Colon cancer organoid [3] = test: as §1, with “O21” for “O06”

SMILES | Cell Viability (Colon cancer organoid [1]; Replication number 1) | Cell Viability (Colon cancer organoid [1]; Replication number 2) | Cell Viability (Colon cancer organoid [2]; Replication number 1) | Cell Viability (Colon cancer organoid [2]; Replication number 2) | Cell Viability (Colon cancer organoid [3]; Replication number 1) | Cell Viability (Colon cancer organoid [3]; Replication number 2)
COc1cc2c(cc1OCCCN1CCCC1)N=C(N)C21CCC1 | 110.816% and 131.678% | 106.27% and 117.339% | 70.9946% and 111.515% | 77.9538% and 123.155% | 92.2277% and 112.28% | 68.723% and 97.1957%
O=C1[C@H](Cc2ccc(O)cc2)N2C(=O)CCN(C(=O)NCc3ccccc3)[C@H]2CN1Cc1cccc2ccccc12 | 96.6982% and 93.2617% | 106.282% and 104.195% | 80.9835% and 70.711% | 121.345% and 94.0767% | 89.9628% and 92.2926% | 85.8858% and 90.2148%
Cc1cc(-n2nc(Cc3cc(F)cc(C(F)(F)F)c3)nc2C)ccc1C(N)=O [TP-024] | 119.634% and 111.944% | 93.5275% and 86.4673% | 194.223% and 140.244% | 90.9356% and 75.9401% | 86.6903% and 89.6507% | 83.205% and 88.2653%
CN1CCN(c2ccnc(NCCc3ccccc3)n2)CC1 [TP-040n] | 105.696% and 108.533% | 89.6424% and 87.2137% | 119.963% and 93.2958% | 137.241% and 93.2958% | 124.161% and 101.443% | 125.774% and 83.8743%
CN(C)c1ncnc(-c2ccc3nc(Nc4cc(CN5CCN(C(=O)CC(F)(F)F)CC5)ccn4)[nH]c3c2)c1Cl [BAY-440] | 91.3612% and 98.3607% | 93.5115% and 120.107% | 134.702% and 130.21% | 215.997% and 118.583% | 107.586% and 105.951% | 93.8566% and 87.7551%
O=C(Nc1cccnn1)N1CC(C/C=C/c2cncc(Oc3ccc(C(F)(F)F)cn3)n2)C1 | 109.538% and 100.234% | 99.7432% and 110.394% | 144.17% and 108.229% | 154.84% and 92.5885% | 91.4572% and 89.6507% | 96.356% and 80.102%
CCOc1cc2ncc(C#N)c(Nc3ccc(OCc4cccc(F)c4)c(Cl)c3)c2cc1NC(=O)/C=C/CN(C)C [HKI-357] | 2.387% and 8.346% | 3.908% and 9.337% | 14.2588% and 15.3343% | 12.8508% and 14.4694% | 27.4097% and 41.0314% | 48.8208% and 68.5139%
CN(C)C(=O)Cn1cc(-c2ccc(-c3cncc4ccccc34)cc2)cn1 | 73.9778% and 127.973% | 75.2678% and 99.5373% | 314.332% and 120.679% | 170.131% and 105.821% | 132.258% and 129.895% | 113.21% and 111.119%
C=CC(=O)Nc1cccc(C(=O)Nc2ccc(Nc3cc(-c4[nH]c(SC)nc4C)ccn3)cc2)c1 | 120.545% and 116.4% | 120.557% and 114.139% | 195.827% and 119.682% | 254.944% and 117.159% | 87.1744% and 91.9861% | 133.203% and 116.877%
Nc1ccc(C(=O)Nc2cccc(-c3nc(N4CCOCC4)c4oc5ncccc5c4n3)c2)cn1 | 13.3803% and 32.049% |  | 90.7287% and 76.048% | 104.901% and 91.2435% | 74.5315% and 72.4739% | 83.2595% and 89.2407%
C=CC(=O)Nc1ccc2[nH]c(=O)n(C3CCN(C(=O)c4ccc(-c5nc6cc[nH]c(=O)c6cc5-c5ccccc5)cc4)CC3)c2c1 | 120.248% and 109.056% | 107.251% and 98.7147% | 86.8441% and 100.234% | 90.0124% and 91.2435% | 115.206% and 106.481% | 111.195% and 142.785%
CC[C@H](CO)Nc1nc(NCc2ccccc2)c2ncn(C(C)C)c2n1 [SELICICLIB] | 146.934% and 137.321% | 92.4206% and 95.8355% | 133.303% and 96.4937% | 129.12% and 84.4947% | 79.2225% and 95.8885% | 112.922% and 92.6952%
Cc1cc(C)cc([C@H]2c3cc(C)ccc3NC(=O)CN2C(=O)c2ccc(Br)s2)c1 | 159.149% and 112.832% | 176.911% and 106.346% | 143.943% and 101.546% | 157.398% and 102.629% | 126.442% and 119.334% | 102.791% and 105.788%
O=C(CCCCCCNC(=O)c1cnc(N(c2ccccc2)c2ccccc2)nc1)NO [RICOLINOSTAT] | 107.943% and 108.966% | 120.178% and 118.056% |  | 236.119% and 135.984% | 136.698% and 150.49% | 122.116% and 112.232%
